Results: PubChem BioAssay (NCI)
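Tested at 5 concentrations; 48 h exposure; 96-well plates; endpoints linearly interpolated, else capped at highest concentration. GI50 = concentration required for 50% inhibition of growth. Definition used: TGI = concentration required for complete inhibition of growth.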

Legend:
Test in all cases: inhibition of tumour cell growth, NCI panel, 48 h
[1] = test system: HT29 colon
[2] = test system: SF-295 CNS
[3] = test system: U251 CNS
[4] = test system: HOP-62 NSCLC
[5] = test system: SF-268 CNS
[6] = test system: HCC-2998 colon
[7] = test system: SNB-19 CNS
[8] = test system: MCF7 breast
[9] = test system: OVCAR-3 ovarian
[10] = test system: MALME-3M melanoma
[11] = test system: 786-0 renal
[12] = test system: DU-145 prostate
[13] = test system: A549 NSCLC
[14] = test system: NCI-H460 lung
[15] = test system: HS 578T breast
[16] = test system: HOP-92 NSCLC
[17] = test system: LOX IMVI melanoma
[18] = test system: NCI/ADR-RES ovarian
[19] = test system: RPMI-8226 leukemia
[20] = test system: HCT-15 colon
[21] = test system: MOLT-4 leukemia
[22] = test system: UO-31 renal
[23] = test system: SK-OV-3 ovarian
[24] = test system: SNB-75 CNS
[25] = test system: COLO 205 colon
[26] = test system: M14 melanoma
[27] = test system: T-47D breast
[28] = test system: ACHN renal
[29] = test system: OVCAR-4 ovarian
[30] = test system: KM12 colon
[31] = test system: UACC-257 melanoma
[32] = test system: CCRF-CEM leukemia
[33] = test system: SF-539 CNS
[34] = test system: SR leukemia
[35] = test system: A498 renal
[36] = test system: EKVX NSCLC
[37] = test system: OVCAR-5 ovarian
[38] = test system: SW-620 colon
[39] = test system: CAKI-1 renal
[40] = test system: MDA-MB-231 breast
[41] = test system: SN12C renal
[42] = test system: HCT-116 colon
[43] = test system: SK-MEL-28 melanoma
[44] = test system: NCI-H23 lung
[45] = test system: UACC-62 melanoma
[46] = test system: SK-MEL-2 melanoma
[47] = test system: RXF 393 renal
[48] = test system: TK-10 renal
[49] = test system: BT-549 breast
[50] = test system: SK-MEL-5 melanoma
[51] = test system: K-562 leukemia
[52] = test system: NCI-H522 lung
[53] = test system: PC-3 prostate
[54] = test system: IGROV1 ovarian
[55] = test system: OVCAR-8 ovarian
[56] = test system: MDA-MB-435

O=C(CN1C(=O)S/C(=C\C(Cl)=C\c2ccccc2)C1=O)NC1C=CS(=O)(=O)C1 (configuration not stated)
GI50 [1]: 1.92 µM | TGI [1]: 6.72 µM | GI50 [2]: 2.32 µM | TGI [2]: 5.19 µM | GI50 [3]: 1.88 µM | TGI [3]: 5.9 µM | GI50 [4]: 2.97 µM | TGI [4]: 11.1 µM | GI50 [5]: 2.44 µM | TGI [5]: 8.55 µM | GI50 [6]: 1.95 µM | TGI [6]: 3.75 µM | GI50 [7]: 2.76 µM | TGI [7]: 11.5 µM | GI50 [8]: 0.467 µM | TGI [8]: > 100 µM | GI50 [9]: 0.729 µM | TGI [9]: 2.33 µM | GI50 [10]: 1.27 µM | TGI [10]: 3.93 µM | GI50 [11]: 1.8 µM | TGI [11]: 4.37 µM | GI50 [12]: 1.83 µM | TGI [12]: 4.27 µM | GI50 [13]: 3 µM | TGI [13]: > 100 µM | GI50 [14]: 1.86 µM | TGI [14]: 6.36 µM | GI50 [15]: 2.33 µM | TGI [15]: 8.33 µM | GI50 [16]: 1.67 µM | TGI [16]: 5.75 µM | GI50 [17]: 0.24 µM | TGI [17]: 0.624 µM | GI50 [18]: 1.99 µM | TGI [18]: > 100 µM | GI50 [19]: 0.477 µM | TGI [19]: 4.33 µM | GI50 [20]: 0.378 µM | TGI [20]: 3.47 µM | GI50 [21]: 0.621 µM | TGI [21]: > 100 µM | GI50 [22]: 1.37 µM | TGI [22]: 2.79 µM | GI50 [23]: 3.3 µM | TGI [23]: 32.6 µM | GI50 [24]: 0.387 µM | TGI [24]: 12.6 µM | GI50 [25]: 1.54 µM | TGI [25]: 3.76 µM | GI50 [26]: 1.31 µM | TGI [26]: 4.69 µM | GI50 [27]: 0.917 µM | TGI [27]: 8.19 µM | GI50 [28]: 0.931 µM | TGI [28]: 8.65 µM | GI50 [29]: 2.27 µM | TGI [29]: 17.4 µM | GI50 [30]: 1.78 µM | TGI [30]: 4.11 µM | GI50 [31]: 2.18 µM | TGI [31]: 8.82 µM | GI50 [32]: 0.327 µM | TGI [32]: > 100 µM | GI50 [33]: 2 µM | TGI [33]: 4.76 µM | GI50 [34]: 0.29 µM | TGI [34]: > 100 µM | GI50 [35]: 1.42 µM | TGI [35]: 4 µM | GI50 [36]: 2.19 µM | TGI [36]: 6.06 µM | GI50 [37]: 2.31 µM | TGI [37]: 6.13 µM | GI50 [38]: 0.553 µM | TGI [38]: 2.86 µM | GI50 [39]: 1.65 µM | TGI [39]: 4.23 µM | GI50 [40]: 1.44 µM | TGI [40]: 4.15 µM | GI50 [41]: 1.27 µM | TGI [41]: 5.51 µM | GI50 [42]: 0.377 µM | TGI [42]: 1.83 µM | GI50 [43]: 1.81 µM | TGI [43]: 3.9 µM | GI50 [44]: 2.09 µM | TGI [44]: 7.17 µM | GI50 [45]: 1.13 µM | TGI [45]: 3.16 µM | GI50 [46]: 2.11 µM | TGI [46]: 5.22 µM | GI50 [47]: 0.849 µM | TGI [47]: 2.18 µM | GI50 [48]: 2.08 µM | TGI [48]: 6.61 µM | GI50 [49]: 1.75 µM | TGI [49]: 4.78 µM | GI50 [50]: 1.72 µM | TGI [50]: 3.22 µM | GI50 [51]: 0.4 µM | TGI [51]: > 100 µM | GI50 [52]: 0.299 µM | TGI [52]: 1.33 µM | GI50 [53]: 2.15 µM | TGI [53]: 7.33 µM | GI50 [54]: 1.31 µM | TGI [54]: 4.31 µM | GI50 [55]: 0.939 µM | TGI [55]: > 100 µM | GI50 [56]: 1.55 µM | TGI [56]: 3.41 µM
